What was measured:
human Nav1.7 channels = biological target: T1, human Nav1.7 channels (Homo sapiens, UniProt Q15858); assay: FRET assay, human Nav1.7 (EFS on FDSS); assay type: cell-based; conditions: CHO cells expressing human Nav1.7, read-out: IC50 against Nav1.7
T1 construct: expressed in transfected cells; host or cells: CHO
In short: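 CHO cells stably expressing the channel, loaded with CC2-DMPE (10 µM) then DiSBAC2(3) (15 µM) plus VABSC-1, in HEPES-buffered saline pH 7.4 at room temperature. Electrical field stimulation on FDSS; FRET ratio at 440 nm fitted for IC50.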

human Nav1.3 channels = biological target: T2, human Nav1.3 channels (Homo sapiens, UniProt Q9NY46); assay: FRET assay, human Nav1.3 (EFS on FDSS); assay type: cell-based; conditions: HEK293 cells expressing human Nav1.3, read-out: IC50 against Nav1.3
T2 construct: expressed in transfected cells; host or cells: HEK293
In short: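 HEK293 cells expressing the channel, loaded with 10 microM CC2-DMPE then 15 microM DiSBAC2(3) plus 0.555 mM VABSC-1 in pH 7.4 HEPES buffer at room temperature. Membrane potential changes evoked by electrical field stimulation after compound addition; IC50 from 440 nm-normalized FRET ratios.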

T2 sequence (Q9NY46 whole entry): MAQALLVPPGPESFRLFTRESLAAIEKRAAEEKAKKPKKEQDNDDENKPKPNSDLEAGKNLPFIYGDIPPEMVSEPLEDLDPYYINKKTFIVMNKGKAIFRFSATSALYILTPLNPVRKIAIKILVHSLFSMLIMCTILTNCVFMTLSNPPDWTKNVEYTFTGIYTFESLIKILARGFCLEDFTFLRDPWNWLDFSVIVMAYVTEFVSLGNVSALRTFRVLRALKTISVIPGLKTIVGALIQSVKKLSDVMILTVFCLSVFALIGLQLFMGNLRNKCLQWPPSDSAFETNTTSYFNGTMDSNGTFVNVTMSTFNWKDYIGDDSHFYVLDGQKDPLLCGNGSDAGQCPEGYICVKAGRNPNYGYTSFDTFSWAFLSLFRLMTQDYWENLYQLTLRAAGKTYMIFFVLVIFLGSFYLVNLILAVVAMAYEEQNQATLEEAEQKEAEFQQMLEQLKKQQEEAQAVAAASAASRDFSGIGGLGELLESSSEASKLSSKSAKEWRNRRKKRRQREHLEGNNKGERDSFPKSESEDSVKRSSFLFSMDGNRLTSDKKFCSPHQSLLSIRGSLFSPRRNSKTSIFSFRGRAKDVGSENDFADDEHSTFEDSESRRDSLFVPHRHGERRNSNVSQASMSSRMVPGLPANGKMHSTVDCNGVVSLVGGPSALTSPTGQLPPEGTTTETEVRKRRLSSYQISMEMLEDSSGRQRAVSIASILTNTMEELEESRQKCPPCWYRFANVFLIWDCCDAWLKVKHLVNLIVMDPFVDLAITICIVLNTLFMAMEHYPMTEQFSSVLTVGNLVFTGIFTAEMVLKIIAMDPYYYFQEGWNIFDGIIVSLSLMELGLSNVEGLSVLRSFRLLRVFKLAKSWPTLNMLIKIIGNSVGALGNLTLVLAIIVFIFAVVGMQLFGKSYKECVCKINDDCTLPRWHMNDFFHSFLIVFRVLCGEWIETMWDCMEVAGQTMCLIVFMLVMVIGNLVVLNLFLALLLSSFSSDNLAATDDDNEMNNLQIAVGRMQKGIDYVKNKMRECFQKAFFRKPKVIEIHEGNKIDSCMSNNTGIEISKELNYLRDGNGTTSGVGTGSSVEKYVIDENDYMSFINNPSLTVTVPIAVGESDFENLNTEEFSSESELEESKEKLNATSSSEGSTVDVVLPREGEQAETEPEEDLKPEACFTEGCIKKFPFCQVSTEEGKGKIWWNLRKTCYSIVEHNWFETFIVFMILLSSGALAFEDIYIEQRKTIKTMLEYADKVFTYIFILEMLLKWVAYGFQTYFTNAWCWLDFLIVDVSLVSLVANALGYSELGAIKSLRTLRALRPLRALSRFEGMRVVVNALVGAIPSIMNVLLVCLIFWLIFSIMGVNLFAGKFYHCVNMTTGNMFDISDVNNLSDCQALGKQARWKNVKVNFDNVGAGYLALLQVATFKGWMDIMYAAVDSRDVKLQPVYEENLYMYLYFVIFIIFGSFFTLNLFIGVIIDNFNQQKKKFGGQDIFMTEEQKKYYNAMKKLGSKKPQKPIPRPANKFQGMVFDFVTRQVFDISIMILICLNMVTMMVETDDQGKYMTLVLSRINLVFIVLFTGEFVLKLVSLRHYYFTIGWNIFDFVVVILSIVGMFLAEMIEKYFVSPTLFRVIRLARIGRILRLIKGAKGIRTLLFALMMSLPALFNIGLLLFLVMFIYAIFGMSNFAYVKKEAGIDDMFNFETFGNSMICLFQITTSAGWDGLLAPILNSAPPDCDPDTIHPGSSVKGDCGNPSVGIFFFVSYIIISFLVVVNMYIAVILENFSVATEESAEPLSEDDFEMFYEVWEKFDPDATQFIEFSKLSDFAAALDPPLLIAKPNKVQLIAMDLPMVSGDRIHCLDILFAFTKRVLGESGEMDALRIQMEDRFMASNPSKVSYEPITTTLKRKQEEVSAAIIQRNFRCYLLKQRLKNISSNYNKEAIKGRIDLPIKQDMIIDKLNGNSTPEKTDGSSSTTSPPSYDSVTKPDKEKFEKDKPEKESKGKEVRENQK
T1 sequence (Q15858 whole entry): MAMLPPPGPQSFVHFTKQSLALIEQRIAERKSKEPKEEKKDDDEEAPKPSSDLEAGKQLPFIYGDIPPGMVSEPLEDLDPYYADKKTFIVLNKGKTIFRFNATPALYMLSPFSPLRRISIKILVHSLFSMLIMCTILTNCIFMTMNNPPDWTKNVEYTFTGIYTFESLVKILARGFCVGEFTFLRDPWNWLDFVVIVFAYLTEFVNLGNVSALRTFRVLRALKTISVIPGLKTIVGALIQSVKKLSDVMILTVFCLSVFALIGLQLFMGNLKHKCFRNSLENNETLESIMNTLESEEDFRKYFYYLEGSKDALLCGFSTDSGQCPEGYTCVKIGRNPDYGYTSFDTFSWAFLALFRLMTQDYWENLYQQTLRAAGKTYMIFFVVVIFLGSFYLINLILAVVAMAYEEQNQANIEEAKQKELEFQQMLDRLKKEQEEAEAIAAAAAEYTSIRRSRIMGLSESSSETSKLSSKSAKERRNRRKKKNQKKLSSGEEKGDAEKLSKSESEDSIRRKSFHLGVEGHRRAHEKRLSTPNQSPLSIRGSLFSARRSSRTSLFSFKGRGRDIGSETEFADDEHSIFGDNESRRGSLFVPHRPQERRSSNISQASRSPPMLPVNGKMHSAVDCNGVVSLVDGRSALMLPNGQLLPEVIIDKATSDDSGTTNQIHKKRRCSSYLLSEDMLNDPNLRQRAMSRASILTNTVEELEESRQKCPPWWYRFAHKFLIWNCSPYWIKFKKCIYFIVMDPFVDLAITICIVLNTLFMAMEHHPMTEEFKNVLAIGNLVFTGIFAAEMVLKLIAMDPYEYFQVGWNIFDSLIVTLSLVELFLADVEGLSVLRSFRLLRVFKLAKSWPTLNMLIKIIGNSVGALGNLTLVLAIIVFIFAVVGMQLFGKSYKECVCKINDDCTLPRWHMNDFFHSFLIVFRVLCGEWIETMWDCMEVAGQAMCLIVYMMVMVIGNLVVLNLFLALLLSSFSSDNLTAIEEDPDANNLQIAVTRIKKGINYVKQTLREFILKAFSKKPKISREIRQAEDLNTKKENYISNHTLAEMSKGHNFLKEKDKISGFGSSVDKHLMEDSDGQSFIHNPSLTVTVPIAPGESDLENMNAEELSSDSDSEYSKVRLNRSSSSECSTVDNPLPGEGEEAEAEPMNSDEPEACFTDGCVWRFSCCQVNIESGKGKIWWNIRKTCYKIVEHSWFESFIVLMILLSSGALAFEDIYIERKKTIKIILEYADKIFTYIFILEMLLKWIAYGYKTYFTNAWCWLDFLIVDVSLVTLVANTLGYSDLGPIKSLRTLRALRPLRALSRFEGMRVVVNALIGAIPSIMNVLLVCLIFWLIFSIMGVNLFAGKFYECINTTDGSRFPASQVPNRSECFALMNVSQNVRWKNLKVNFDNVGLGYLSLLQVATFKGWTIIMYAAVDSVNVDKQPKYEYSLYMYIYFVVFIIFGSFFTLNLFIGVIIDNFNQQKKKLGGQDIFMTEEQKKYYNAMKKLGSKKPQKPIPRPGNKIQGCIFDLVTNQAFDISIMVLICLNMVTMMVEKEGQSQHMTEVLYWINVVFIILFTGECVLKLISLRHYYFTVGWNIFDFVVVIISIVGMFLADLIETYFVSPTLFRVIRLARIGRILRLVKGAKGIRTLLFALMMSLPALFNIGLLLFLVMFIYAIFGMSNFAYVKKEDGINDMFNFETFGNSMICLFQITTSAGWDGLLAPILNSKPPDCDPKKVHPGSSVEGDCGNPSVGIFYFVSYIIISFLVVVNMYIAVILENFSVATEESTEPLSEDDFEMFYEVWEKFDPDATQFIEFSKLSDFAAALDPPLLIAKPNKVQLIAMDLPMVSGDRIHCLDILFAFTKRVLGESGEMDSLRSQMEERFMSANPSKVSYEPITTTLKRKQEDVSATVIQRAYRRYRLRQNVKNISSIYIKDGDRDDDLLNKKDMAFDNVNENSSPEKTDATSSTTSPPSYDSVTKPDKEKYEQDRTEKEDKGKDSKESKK

| IC50 (human Nav1.7 channels) | IC50 (human Nav1.3 channels) | Compound |
| --- | --- | --- |
| < 1 µM | < 1 µM | CC(=O)Nc1cc(C(=O)NC(C)c2cnc(OCC(F)(F)F)c(C)c2)ccn1 (single isomer, unassigned) [Example 85, 2-acetamido-N-(1-(5-methyl-6-(2,2,2-trifluoroethoxy)pyridin-3-yl)ethyl)isonicotinamide] |
| < 1 µM | < 1 µM | Cc1cc(CNC(=O)c2ccnc(NC(=O)C3CC3)c2)ccc1OCC(F)(F)F [Example 790, 2-(cyclopropanecarboxamido)-N-(3-methyl-4-(2,2,2-trifluoroethoxy)benzyl)isonicotinamide] |
| < 1 µM | < 1 µM | CC(=O)Nc1cc(C(=O)NCc2ccc(OCC(F)(F)F)c(C)c2)ccn1 [Example 788, 2-acetamido-N-(3-methyl-4-(2,2,2-trifluoroethoxy)benzyl)isonicotinamide] |
| < 1 µM | < 1 µM | CCC(=O)Nc1cc(C(=O)NCc2ccc(OCC(F)(F)F)c(C)c2)ccn1 [Example 789, N-(3-methyl-4-(2,2,2-trifluoroethoxy)benzyl)-2-propionamidoisonicotinamide] |
| < 1 µM | < 1 µM | O=C(NCc1cnc(OCC(F)(F)F)c(Br)c1)c1ccnc(NC(=O)C2CC2)n1 [Example 898, N-((5-bromo-6-(2,2,2-trifluoroethoxy)pyridin-3-yl)methyl)-2-(cyclopropanecarboxamido)pyrimidine-4-carboxamide] |
| < 1 µM | < 1 µM | CC(=O)Nc1cc(C(=O)NCc2ccc(OCC(F)(F)F)c(C)c2)cc(C)n1 [Example 792, 2-acetamido-6-methyl-N-(3-methyl-4-(2,2,2-trifluoroethoxy)benzyl)isonicotinamide] |
| < 1 µM | < 1 µM | Cc1cc(C(C)NC(=O)c2ccnc(NC(=O)C3CC3)n2)cnc1OCC(F)(F)F (single isomer, unassigned) [Example 224, 2-(cyclopropanecarboxamido)-N-(1-(5-methyl-6-(2,2,2-trifluoroethoxy)pyridin-3-yl)ethyl)pyrimidine-4-carboxamide] |
| < 1 µM | < 1 µM | CC(=O)Nc1nc(C)cc(C(=O)NCc2cnc(OCC(F)(F)F)c(C)c2)n1 [Example 363, 2-acetamido-6-methyl-N-((5-methyl-6-(2,2,2-trifluoroethoxy)pyridin-3-yl)methyl)pyrimidine-4-carboxamide] |
| < 1 µM | < 1 µM | Cc1cc(C(=O)NCc2cnc(OCC(F)(F)F)c(Br)c2)nc(NC(=O)C2CC2)n1 [Example 902, N-((5-bromo-6-(2,2,2-trifluoroethoxy)pyridin-3-yl)methyl)-2-(cyclopropanecarboxamido)-6-methylpyrimidine-4-carboxamide] |
| < 1 µM | < 1 µM | CCC(=O)Nc1nc(C)cc(C(=O)NCc2cnc(OCC(F)(F)F)c(C)c2)n1 [Example 364, 6-methyl-N-((5-methyl-6-(2,2,2-trifluoroethoxy)pyridin-3-yl)methyl)-2-propionamidopyrimidine-4-carboxamide] |
| < 1 µM | < 1 µM | CC(=O)Nc1nc(C)cc(C(=O)NC(C)c2cnc(OCC(F)(F)F)c(C)c2)n1 (single isomer, unassigned) [Example 235, 2-acetamido-6-methyl-N-(1-(5-methyl-6-(2,2,2-trifluoroethoxy)pyridin-3-yl)ethyl)pyrimidine-4-carboxamide] |
| < 1 µM | < 1 µM | Cc1cc(C(C)NC(=O)c2ccnc(NC(=O)C(C)C)n2)cnc1OCC(F)(F)F (single isomer, unassigned) [Example 225, 2-isobutyramido-N-(1-(5-methyl-6-(2,2,2-trifluoroethoxy)pyridin-3-yl)ethyl)pyrimidine-4-carboxamide] |
| < 1 µM | < 1 µM | CCC(=O)Nc1cc(C(=O)NCc2ccc(OCC(F)(F)F)c(C)c2)cc(C)n1 [Example 793, 2-methyl-N-(3-methyl-4-(2,2,2-trifluoroethoxy)benzyl)-6-propionamidoisonicotinamide] |
| < 1 µM | < 1 µM | CCc1cc(CNC(=O)c2cc(C)nc(NC(=O)C3CC3)c2)cnc1OCC(F)(F)F [Example 825, 2-(cyclopropanecarboxamido)-N-((5-ethyl-6-(2,2,2-trifluoroethoxy)pyridin-3-yl)methyl)-6-methylisonicotinamide] |
| < 1 µM | < 1 µM | CCC(=O)Nc1nccc(C(=O)NC(C)c2cnc(OCC(F)(F)F)c(C)c2)n1 (single isomer, unassigned) [Example 223, N-(1-(5-methyl-6-(2,2,2-trifluoroethoxy)pyridin-3-yl)ethyl)-2-propionamidopyrimidine-4-carboxamide] |
| < 1 µM | < 1 µM | CCOc1nc(OCC(F)(F)F)ccc1CNC(=O)c1cc(C)nc(NC(=O)C(C)C)n1 [Example 360, N-((2-ethoxy-6-(2,2,2-trifluoroethoxy)pyridin-3-yl)methyl)-2-isobutyramido-6-methylpyrimidine-4-carboxamide] |

| IC50 (human Nav1.7 channels) | IC50 (human Nav1.3 channels) | Compound |
| --- | --- | --- |
| < 1 µM | < 1 µM | Cc1cc(C(C)NC(=O)c2ccnc(NC(=O)C3CC3)c2)cnc1OCC(F)(F)F (single isomer, unassigned) [Example 89, 2-(cyclopropanecarboxamido)-N-(1-(5-methyl-6-(2,2,2-trifluoroethoxy)pyridin-3-yl)ethyl)isonicotinamide] |
| < 1 µM | < 1 µM | CC(=O)Nc1cc(C(=O)NC(C)c2cnc(OCC(F)(F)C(F)F)c(C)c2)cc(C)n1 (single isomer, unassigned) [Example 927, 2-acetamido-6-methyl-N-(1-(5-methyl-6-(2,2,3,3-tetrafluoropropoxy)pyridin-3-yl)ethyl)isonicotinamide] |
| < 1 µM | < 1 µM | O=C(NCc1cnc(OCC(F)F)c(Cl)c1)c1ccnc(NC(=O)C2CC2)n1 [Example 707, N-((5-chloro-6-(2,2-difluoroethoxy)pyridin-3-yl)methyl)-2-(cyclopropanecarboxamido)pyrimidine-4-carboxamide] |
| < 1 µM | < 1 µM | CCC(=O)Nc1cc(C(=O)NCc2cnc(OCC(F)(F)F)c(C)c2)ccn1 [Example 368, N-((5-methyl-6-(2,2,2-trifluoroethoxy)pyridin-3-yl)methyl)-2-propionamidoisonicotinamide] |
| < 1 µM | < 1 µM | CCC(=O)Nc1cc(C(=O)NCc2ccc(OCC(F)(F)F)nc2OC)cc(C)n1 [Example 150, N-((2-methoxy-6-(2,2,2-trifluoroethoxy)pyridin-3-yl)methyl)-2-methyl-6-propionamidoisonicotinamide] |
| < 1 µM | < 1 µM | CCC(=O)Nc1cc(C(=O)NC(C)c2ccc(OCC(F)(F)F)cc2)cc(C)n1 (single isomer, unassigned) [Example 136, 2-methyl-6-propionamido-N-(1-(4-(2,2,2-trifluoroethoxy)phenyl)ethyl)isonicotinamide] |
| < 1 µM | < 1 µM | CC(C)C(=O)Nc1cc(C(=O)NCc2cccc(OC(F)(F)F)c2)ccn1 [Example 527, 2-isobutyramido-N-(3-(trifluoromethoxy)benzyl)isonicotinamide] |
| < 1 µM | < 1 µM | CC(=O)Nc1cc(C(=O)NCc2cccc(OC(F)(F)F)c2)cc(C)n1 [Example 525, 2-acetamido-6-methyl-N-(3-(trifluoromethoxy)benzyl)isonicotinamide] |
| < 1 µM | < 1 µM | O=C(NCc1cnc(OCC(F)(F)F)c(Br)c1)c1ccnc(NC(=O)C2CC2)c1 [Example 896, N-((5-bromo-6-(2,2,2-trifluoroethoxy)pyridin-3-yl)methyl)-2-(cyclopropanecarboxamido)isonicotinamide] |
| < 1 µM | < 1 µM | CCC(=O)Nc1cc(C(=O)NCc2cnc(OCC(F)(F)F)c(C)c2)cc(C)n1 [Example 372, 2-methyl-N-((5-methyl-6-(2,2,2-trifluoroethoxy)pyridin-3-yl)methyl)-6-propionamidoisonicotinamide] |
| < 1 µM | < 1 µM | CCC(=O)Nc1cc(C(=O)NCc2ccc(OC(F)(F)F)c(C)c2)ccn1 [Example 805, N-(3-methyl-4-(trifluoromethoxy)benzyl)-2-propionamidoisonicotinamide] |
| < 1 µM | < 1 µM | COc1c(CNC(=O)c2cc(C)nc(NC(=O)C(C)C)c2)cccc1C(F)(F)F [Example 880, 2-isobutyramido-N-(2-methoxy-3-(trifluoromethyl)benzyl)-6-methylisonicotinamide] |
| < 1 µM | < 1 µM | Cc1cc(C(=O)NC(C)c2cnc(OCC(F)(F)F)c(C)c2)nc(NC(=O)C(C)C)n1 (single isomer, unassigned) [Example 229, 2-isobutyramido-6-methyl-N-(1-(5-methyl-6-(2,2,2-trifluoroethoxy)pyridin-3-yl)ethyl)pyrimidine-4-carboxamide] |
| < 1 µM | < 1 µM | CCC(=O)Nc1cc(C(=O)NCc2cccc(OCC(F)(F)F)n2)cc(C)n1 [Example 467, 2-methyl-6-propionamido-N-((6-(2,2,2-trifluoroethoxy)pyridin-2-yl)methyl)isonicotinamide] |
| < 1 µM | < 1 µM | Cc1cc(C(=O)NC(C)c2cnc(OCC(F)(F)C(F)F)c(C)c2)cc(NC(=O)C(C)C)n1 (single isomer, unassigned) [Example 905, 2-isobutyramido-6-methyl-N-(1-(5-methyl-6-(2,2,3,3-tetrafluoropropoxy)pyridin-3-yl)ethyl)isonicotinamide] |

From US9302991B2, “Arylamide derivatives as TTX-S blockers” (RaQualia Pharma Inc., priority 2010, dated 2016)
